Results on eight compounds are retold here after patent US20230271959A1, “HETEROCYCLIC COMPOUND AS BCL-2 INHIBITOR” (Beijing Innocare Pharma Tech Co., Ltd., priority 2020, published 2023).

For assay [1], the target named is T1, human recombinant Bcl-2 protein (Homo sapiens, UniProt P10415).
T1 construct: purchased Beijing Yigiao Shenzhou Biotechnology Co., Ltd. 10195-HOSE
As to the kind of experiment: Fluorescence polarization test for inhibition of BCL-2 binding to FITC-BIM. Particulars: 5 nM BCL-2, 5 nM FITC-BIM, read-out: FP BCL-2 IC50. As to the method: Fluorescence polarization assay was used to evaluate the effect of the compounds of the present invention on the biological activity of BCL-2.
The effects of the compounds on the biological activity of BCL-2 were evaluated by determining the effects of the compounds on the binding activity of BCL-2 to leukemia pro-apoptotic protein (BIM) using an affinity assay method based on the principle of fluorescence polarization. The reaction buffer comprises the following components: PBS (pH 7.4, 3 mM Na2HPO4, 155 mM NaCl, 1 mM KH2PO4), 1 mM DTT; human recombinant Bcl-2 protein (Item No. 10195-HOSE) (purchased from Beijing Yigiao Shenzhou Biotechnology Co., Ltd.) was diluted to 5 nM with the reaction buffer; FITC-labeled BIM polypeptide (purchased from Nanjing GenScript Biotechnology Co., Ltd.) was diluted to 5 nM with the reaction buffer.
The compounds were dissolved in 100% DMSO and diluted to 0.1, 1, 10 μM, followed by 4-fold serial dilutions with DMSO to a minimum concentration of 0.0061, 0.061, 0.61 nM, each concentration point was further diluted 50-fold with the reaction buffer.
3 μL of solution containing the compound and 12 μL of solution containing BCL-2 were added to the black 384-well assay plate, mixed well, and incubated at room temperature for 15 minutes. Subsequently, 15 μL of FITC-BIM solution was added, and the reaction mixture was incubated at room temperature for 30 minutes in dark place, and then the fluorescence polarization was detected immediately on an Envision multi-mode reader (Perkin Elmer), with 480 nm as the excitation wavelength and 535 nm as the emission wavelength. In this experiment, the group without BCL-2 protein was used as a negative control (100% inhibition), and the group with BCL-2 protein but without the compound was used as a positive control (0% inhibition). The inhibition percentage of the compound to the affinity of BCL-2 can be calculated using the following equation: […]
(§1) The IC50 of the compound was calculated from 8 concentration points using XLfit (ID Business Solutions Ltd., UK) software by the following equation:
(§2) Y=Bottom+(Top−Bottom)/(1+10^((log IC50−X)*slope factor))
(§3) where Y is the inhibition percentage, X is the logarithm of the concentration of the compound to be tested, Bottom is the maximum inhibition percentage, Top is the minimum inhibition percentage, and slope factor is the slope coefficient of the curve.
A general note: Polarisation of emitted light reports the rotation of a fluorescent probe.

Assay [2] deals with RS4;11 cells (acute lymphoblastic leukemia cells). As to the kind of experiment: RS4;11 cell proliferation, CellTilter-Glo luminescence cell viability assay. The format is cell-based. Particulars: Homo sapiens, RS4-11; CTG readout after 48 hours. As to the method:
The effects of the compounds of the present invention on the proliferation of RS4;11 cells were evaluated using a luminescence cell viability assay.
A CellTilter-Glo (CTG) Assay Kit is used to detect ATP, a key indicator of the metabolism of living cells, through a unique, highly sensitive and stable luciferase. The luminescent signal generated in the assay is proportional to the number of the viable cells in the medium, therefore the cell proliferation of RS4;11 can be determined.
CellTilter-Glo reagent (Promega, G7572) is composed of CellTilter-Glo lyophilized powder and CellTilter-Glo buffer, and the lyophilized powder can be dissolved in the buffer for use.
RS4;11 cells (ATCC, CRL-1873) were cultured in RPMI1640 complete medium (Thermofisher, 72400-047) containing 10% FBS (GBICO, 10099-141) and 100 units/ml penicillin-streptomycin solution (Thermofisher, 15140122)), when the cells covered 80-90% in the culture vessel, they were digested and dispersed with 0.25% trypsin (containing EDTA) (Thermofisher, 25200056) and then planted in a white 384-well plate (Thermofisher, 164610), and then the 384-well plate was incubated overnight in a 37° C., 5% CO2 incubator. Compounds were dissolved in 100% DMSO and diluted to […], followed by 4-fold serial dilutions with DMSO to a minimum concentration of 0.061 μM, and each concentration point was further diluted 50-fold with FBS-free RPMI1640 medium. If the IC50 of the compound is very low, the initial concentration of the compound can be reduced. After overnight, 3 μL of the compound diluted in the medium was added to each well, and the mixture was gently centrifuged to mix. The group without cells was used as a negative control (100% inhibition), and the group with 0.2% DMSO was used as a positive control (0% inhibition). The 384-well plate was placed in a 37° C., 5% CO2 incubator for further cultivation. After 48 hours, the plate was taken out and equilibrated to room temperature. 15 μl of CTG reagent was added to each well, the plate was shaken gently for 3 minutes to make sure that the cell lysis was carried out thoroughly, then the plate was kept for 10 minutes to stabilize the luminescence signal, then the luminescence signal was read by EnVision (Perkin Elmer).
The inhibition percentage of the compounds to RS4;11 cell proliferation can be calculated using the following equation:
Inhibition Percentage=100−100*(signal compound-signal negative control)/(signal positive control-signal negative control)
as §1
Y=Bottom+(Top−Bottom)/(1+10^((Log IC50−X)*slope factor))
wherein, Y is the inhibition percentage, Bottom is the bottom plateau of the curve (the bottom plateau value of the S-shaped curve), Top is the top plateau of the curve (the top plateau value of the S-shaped curve), and X is the logarithm of the concentration of the compound to be tested.

Assay [3] deals with T2, human recombinant Bcl-XL protein (Homo sapiens, UniProt Q07817).
T2 construct: purchased Beijing Yiqiao Shenzhou Biotechnology Co., Ltd. 10455-H0SE
As to the kind of experiment: Fluorescence polarization test for inhibition of BCL-XL binding to FITC-BIM. Particulars: 10 nM BCL-XL, 10 nM FITC-BIM, read-out: FP BCL-XL IC50. The protocol: Fluorescence polarization assay was used to evaluate the effect of the compounds of the present invention on the biological activity of BCL-XL.
The effects of the compounds on the biological activity of BCL-XL were evaluated by detecting the effects of the compounds on the binding activity of BCL-XL to BIM using an affinity assay method based on the principle of fluorescence polarization. The reaction buffer contains the following components: PBS (pH 7.4, 3 mM Na2HPO4, 155 mM NaCl, 1 mM KH2PO4), 1 mM DTT; human recombinant Bcl-XL protein (Item No. 10455-H0SE) (purchased from Beijing Yiqiao Shenzhou Biotechnology Co., Ltd.) was diluted to 10 nM with reaction buffer; FITC-labeled BIM polypeptide (purchased from Nanjing GenScript Biotechnology Co., Ltd) was diluted to 10 nM with reaction buffer.
The compounds were dissolved in 100% DMSO and diluted to 1 μM, followed by 4-fold serial dilutions in DMSO to a minimum concentration of 0.061 nM, each concentration point was further diluted 50-fold with reaction buffer.
3 μL of solution containing the compound and 12 μL of solution containing BCL-XL were added to the black 384-well assay plate, mixed well, and incubated at room temperature for 15 minutes. Subsequently, 15 μL of FITC-BIM solution was added, and the reaction mixture was incubated at room temperature for 30 minutes in the dark place, and then the fluorescence polarization was detected immediately on an Envision multi-plate reader (Perkin Elmer), with 480 nm as the excitation wavelength and 535 nm as the emission wavelength. In this experiment, the group without BCL-XL protein was used as a negative control (100% inhibition), and the group with BCL-XL protein but without the compound was added as a positive control (0% inhibition). The inhibition percentage of the compound to the affinity of BCL-XL can be calculated using the following equation: […]
as §1, §2, §3

T2 sequence (Q07817 whole entry): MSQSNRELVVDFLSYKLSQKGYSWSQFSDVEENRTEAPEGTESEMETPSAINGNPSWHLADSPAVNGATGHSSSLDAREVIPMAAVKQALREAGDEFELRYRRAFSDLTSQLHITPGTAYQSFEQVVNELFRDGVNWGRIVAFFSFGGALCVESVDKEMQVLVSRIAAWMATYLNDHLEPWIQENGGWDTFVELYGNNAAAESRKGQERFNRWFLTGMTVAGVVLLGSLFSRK
T1 sequence (P10415 whole entry): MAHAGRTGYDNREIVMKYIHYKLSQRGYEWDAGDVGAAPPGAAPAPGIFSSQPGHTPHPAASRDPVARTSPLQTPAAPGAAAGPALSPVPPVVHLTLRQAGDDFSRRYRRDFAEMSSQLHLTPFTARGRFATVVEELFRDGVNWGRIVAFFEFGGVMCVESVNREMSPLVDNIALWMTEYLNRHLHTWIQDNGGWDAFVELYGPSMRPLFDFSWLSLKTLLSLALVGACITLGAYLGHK

For `C[C@H]1CCC(CN2CCN(c3ccc(C(=O)NS(=O)(=O)c4ccc(NC[C@H]5COCCO5)c([N+](=O)[O-])c4)c(Oc4cnc5[nH]ccc5c4)c3)C[C@H]2C)=C(c2ccc(Cl)cc2)C1` [Example 16, N-((4-((((S)-1,4-dioxan-2-yl)methyl)amino)-3-nitrophenyl)sulfonyl)-2-((1H-pyrrolo[2,3-b]pyridin-5-yl)oxy)-4-((R)-4-(((S)-4′-chloro-5-methyl-3,4,5,6-tetrahydro-[1,1′-biphenyl]-2-yl)methyl)-3-methylpiperazin-1-yl) benzamide], the IC50 in assay [1] was 3.41 nM; in assay [2], 8.8 nM; in assay [3] it was above 1000 nM.

Consider `C[C@H]1CCC(CN2CCN(c3ccc(C(=O)NS(=O)(=O)c4cc(F)c(NC[C@H]5COCCO5)c([N+](=O)[O-])c4)c(Oc4cnc5[nH]ccc5c4)c3)C[C@H]2C)=C(c2ccc(Cl)cc2)C1` [Example 17, N-((4-((((S)-1,4-dioxan-2-yl)methyl)amino)-3-fluoro-5-nitrophenyl)sulfonyl)-2-((1H-pyrrolo[2,3-b]pyridin-5-yl)oxy)-4-((R)-4-(((S)-4′-chloro-5-methyl-3,4,5,6-tetrahydro-[1,1′-biphenyl]-2-yl)methyl)-3-methylpiperazin-1-yl)benzamide], for which the values for the IC50 in assay [1], in assay [2] and in assay [3] were 1.46 nM, 3.1 nM and 953 nM, respectively.

As to `C[C@@H]1CCC(CN2CCN(c3ccc(C(=O)NS(=O)(=O)c4ccc(NCC5CCOCC5)c([N+](=O)[O-])c4)c(Oc4cnc5[nH]ccc5c4)c3)C[C@H]2C)=C(c2ccc(Cl)cc2)C1` [Example 19, 2-((1H-pyrrolo[2,3-b]pyridin-5-yl)oxy)-4-((R)-4-(((R)-4′-chloro-5-methyl-3,4,5,6-tetrahydro-[1,1′-biphenyl]-2-yl)methyl)-3-methylpiperazin-1-yl)-N-((3-nitro-4-(((tetrahydro-2H-pyran-4-yl)methyl)amino)phenyl)sulfonyl)benzamide], the figures for the 50% inhibitory concentration (IC50) in assay [1], in assay [2] and in assay [3] were 2.13 nM, 4.25 nM and above 1000 nM, respectively.

On to `C[C@@H]1CCC(CN2CCN(c3ccc(C(=O)NS(=O)(=O)c4ccc(NC[C@H]5COCCO5)c([N+](=O)[O-])c4)c(Oc4cnc5[nH]ccc5c4)c3)C[C@H]2C)=C(c2ccc(Cl)cc2)C1` [Example 20, N-((4-((((S)-1,4-dioxan-2-yl)methyl)amino)-3-nitrophenyl)sulfonyl)-2-((1H-pyrrolo[2,3-b]pyridin-5-yl)oxy)-4-((R)-4-(((R)-4′-chloro-5-methyl-3,4,5,6-tetrahydro-[1,1′-biphenyl]-2-yl)methyl)-3-methylpiperazin-1-yl)benzamide], for which the IC50 in assay [1] is 2.57 nM; in assay [2], 8.8 nM; in assay [3] it was above 1000 nM.

For `C[C@@H]1CCC(CN2CCN(c3ccc(C(=O)NS(=O)(=O)c4cc(F)c(NCC5CCOCC5)c([N+](=O)[O-])c4)c(Oc4cnc5[nH]ccc5c4)c3)C[C@H]2C)=C(c2ccc(Cl)cc2)C1` [Example 21, 2-((1H-pyrrolo[2,3-b]pyridin-5-yl)oxy)-4-((R)-4-(((R)-4′-chloro-5-methyl-3,4,5,6-tetrahydro-[1,1′-biphenyl]-2-yl)methyl)-3-methylpiperazin-1-yl)-N-((3-fluoro-5-nitro-4-(((tetrahydro-2H-pyran-4-yl)methyl)amino)phenyl)sulfonyl)benzamide], the IC50 was 1.97 nM in assay [1], 8.8 nM in assay [2] and above 1000 nM in assay [3].

As for `C[C@@H]1CCC(CN2CCN(c3ccc(C(=O)NS(=O)(=O)c4cc(F)c(NC[C@H]5COCCO5)c([N+](=O)[O-])c4)c(Oc4cnc5[nH]ccc5c4)c3)C[C@H]2C)=C(c2ccc(Cl)cc2)C1` [Example 22], the IC50 is 1.49 nM in assay [1], 4.1 nM in assay [2] and above 1000 nM in assay [3].

For the compound `C[C@@H]1CCC(CN2CCN(c3ccc(C(=O)NS(=O)(=O)c4ccc(NCC5CCOCC5)c([N+](=O)[O-])c4)c(Oc4cnc5[nH]ccc5c4)c3)[C@H](C)C2)=C(c2ccc(Cl)cc2)C1` [Example 23, 2-((1H-pyrrolo[2,3-b]pyridin-5-yl)oxy)-4-((R)-4-(((R)-4′-chloro-5-methyl-3,4,5,6-tetrahydro-[1,1′-biphenyl]-2-yl)methyl)-2-methylpiperazin-1-yl)-N-((3-nitro-4-(((tetrahydro-2H-pyran-4-yl)methyl)amino)phenyl)sulfonyl)benzamide], the IC50 was 9.37 nM in assay [1], 51 nM in assay [2] and above 1000 nM in assay [3].

On to `C[C@@H]1CCC(CN2CCN(c3ccc(C(=O)NS(=O)(=O)c4ccc(NC[C@H]5COCCO5)c([N+](=O)[O-])c4)c(Oc4cnc5[nH]ccc5c4)c3)[C@H](C)C2)=C(c2ccc(Cl)cc2)C1` [Example 24], for which the IC50 in assay [1] is 6.3 nM; in assay [2], 24 nM; in assay [3], above 1000 nM.

Broadly, the IC50 is the concentration at which inhibition is half-maximal.
